Test results as given in patent US20030100997A1, “Matrix assays in genomically indexed cells” (priority 2001, published 2003).
“And” between values parts separate entries of the source, which are not always exact repeats. Equal values may be shown once.

Assays:
Format in all cases: cell-based
panel of 10 cell lines = experiment: calcium mobilization profile across the panel of 10 cell lines; conditions: for effect on calcium responses to histamine: histamine-induced calcium mobilization, panel of 10 cell lines, antagonist 1 or 10 uM
Protocol: (§1) The above panel of 10 cell lines was plated in 96-well black, clear-bottomed tissue culture-treated plates (Molecular Devices, Sunnyvale, Calif. with the number of cells per well indicated in Table 1. Cells were maintained overnight at 37° C., 5%CO2 in a humidified incubator. Media was removed and the cells were then incubated in Hanks balanced salt solution (Invitrogen, Carlsbad Calif.)/10 mM HEPES pH 7.4 containing 0.04% Pluronic Acid (Molecular Probes, Eugene Oreg.) and 4 uM Fluor-3AM (Molecular Probes, Eugene Oreg.) for one hour at 37° C.
(§2) Antagonists were added to the indicated concentration and the cells incubated at room temperature for 20 minutes. After 10 seconds of baseline read collection, agonists were added on a FLIPR instrument (Molecular Devices, Sunnyvale, Calif.) and data were collected for a total of 3.5 minutes. The fluorescence emission was normalized to initial intensity and the sum of the signal over the entire time period was exported and used for determining percent of control responses using the following formula: Percent of Control=(Sample-unstimulated cells)/(ionomycin treated cells-unstimulated cells). […] Calcium mobilization was measured as described above.
(§3) Expression of the target H1 receptor was measured by RT-PCR of mRNA samples from each cell line, as follows.

HBL-100 = experiment: calcium mobilization (FLIPR, Fluo-3) in HBL-100; conditions: for calcium mobilization, Percent of Control: HBL-100; for effect on responses to bradykinin in HBL-100 cells: antagonist at 10 uM
Protocol: as §1
as §2, with “above. […]” for “above.”

NCI-H460 = experiment: calcium mobilization (FLIPR, Fluo-3) in NCI-H460
Protocol: as §1
as §2, with “above. […]” for “above.”

PC-3 = experiment: calcium mobilization (FLIPR, Fluo-3) in PC-3
Protocol: as §1
as §2, with “above. […]” for “above.”

NTera-2 = experiment: calcium mobilization (FLIPR, Fluo-3) in NTera-2; conditions: for calcium mobilization, Percent of Control: NTera-2; for effect on the response to ionomycin in NTera-2 cells: antagonist at 10 uM, cells do not express the H1 receptor
Protocol: as §1
as §2, with “above. […]” for “above.”

T-47D = experiment: calcium mobilization (FLIPR, Fluo-3) in T-47D; conditions: for calcium mobilization, Percent of Control: T-47D; for effect on the response to ionomycin in T-47D cells: antagonist at 10 uM, cells do not express the H1 receptor
Protocol: as §1, §2, §3

SaOS-2 = experiment: calcium mobilization (FLIPR, Fluo-3) in SaOS-2; conditions: for calcium mobilization, Percent of Control: SaOS-2; for effect on responses to bradykinin in SaOS-2 cells: antagonist at 10 uM
Protocol: as §1
as §2, with “above. […]” for “above.”

PANC-1 = experiment: calcium mobilization (FLIPR, Fluo-3) in PANC-1
Protocol: as §1
as §2, with “above. […]” for “above.”

Jurkat = experiment: calcium mobilization (FLIPR, Fluo-3) in Jurkat
Protocol: as §1
as §2, with “above. […]” for “above.”

COLO320 = experiment: calcium mobilization (FLIPR, Fluo-3) in COLO320
Protocol: as §1, §2, §3

SK-Hep-1 = experiment: calcium mobilization (FLIPR, Fluo-3) in SK-Hep-1; conditions: agonist alone (buffer), 10 uM, 100 = 10 uM ionomycin
Protocol: as §1, §2

[1] = response to 1 uM bradykinin after antagonist 10 uM
[2] = response to 10 uM histamine after antagonist 10 uM, 20 min
[3] = response to 10 uM ionomycin after antagonist 10 uM
[4] = agonist alone (buffer), 10 uM, 100 = 10 uM ionomycin

Row | Compound | effect on calcium responses to histamine (panel of 10 cell lines) | effect on responses to bradykinin in HBL-100 cells (HBL-100) | calcium mobilization, Percent of Control (NCI-H460; [3]) | calcium mobilization, Percent of Control (PC-3; [1]) | calcium mobilization, Percent of Control (PC-3; [2]) | calcium mobilization, Percent of Control (PC-3; [3]) | calcium mobilization, Percent of Control (NTera-2; [2]) | calcium mobilization, Percent of Control (NTera-2; [3]) | effect on the response to ionomycin in NTera-2 cells (NTera-2) | calcium mobilization, Percent of Control (T-47D; [3]) | calcium mobilization, Percent of Control (SK-Hep-1) | calcium mobilization, Percent of Control (HBL-100; [4]) | calcium mobilization, Percent of Control (NCI-H460; [4]) | calcium mobilization, Percent of Control (PC-3; [4]) | calcium mobilization, Percent of Control (NTera-2; [4]) | calcium mobilization, Percent of Control (T-47D; [4]) | calcium mobilization, Percent of Control (SaOS-2; [4]) | calcium mobilization, Percent of Control (PANC-1; [4]) | calcium mobilization, Percent of Control (Jurkat; [4]) | calcium mobilization, Percent of Control (COLO320; [4]) | other results
1 | CN(C)CCC(c1ccc(Cl)cc1)c1ccccn1 (stereo not shown) [Compound C1PhAm, chlorpheniramine] | had similar effects to Compound 1 | does not | 73% of Control and 96% of Control | 0% of Control | 0% of Control | 104% of Control | 0% of Control | 99% of Control and 119% of Control | does not affect the ionomycin response | 102% of Control | – | – | – | – | – | – | – | – | – | – | effect on calcium responses to bradykinin (panel of 10 cell lines; bradykinin-induced, antagonist at 10 uM): did not inhibit bradykinin responses; calcium mobilization, Percent of Control (HBL-100; [1]): 11% of Control; calcium mobilization, Percent of Control (HBL-100; [2]): 0% of Control; calcium mobilization, Percent of Control (HBL-100; [3]): 87% of Control; effect on the response to ionomycin in T-47D cells (T-47D): does not affect the ionomycin response; calcium mobilization, Percent of Control (SaOS-2; [1]): 29% of Control and 23% of Control; calcium mobilization, Percent of Control (SaOS-2; [3]): 96% of Control and 112% of Control; effect on responses to bradykinin in SaOS-2 cells (SaOS-2): does not; calcium mobilization, Percent of Control (PANC-1; [3]): 101% of Control and 104% of Control; calcium mobilization, Percent of Control (Jurkat; [1]): 12% of Control and 10% of Control; calcium mobilization, Percent of Control (Jurkat; [2]): 8% of Control and 5% of Control; calcium mobilization, Percent of Control (Jurkat; [3]): 70% of Control and 123% of Control; calcium mobilization, Percent of Control (COLO320; [1]): 0% of Control; calcium mobilization, Percent of Control (COLO320; [3]): 98% of Control and 95% of Control
2 | COc1ccc2c(c1)CC[C@@H]1[C@@H]2CC[C@]2(C)[C@@H](NCCCCCCN3C(=O)C=CC3=O)CC[C@@H]12 [Compound U73122, U73122] | inhibit responses to histamine | inhibits the responses | 102% of Control | 0% of Control | 0% of Control | 100% of Control | 2% of Control | 72% of Control | partially inhibit the response to ionomycin | 88% of Control | – | – | – | – | – | – | – | – | – | – | specificity as inhibitor of histamine signaling through the H1 receptor (panel of 10 cell lines; compared with chlorpheniramine): less specific than chlorpheniramine; calcium mobilization, Percent of Control (NCI-H460; [1]): 1% of Control; calcium mobilization, Percent of Control (NCI-H460; [2]): 2% of Control; calcium mobilization, Percent of Control (NTera-2; [1]): 1% of Control; calcium mobilization, Percent of Control (T-47D; [1]): 1% of Control; calcium mobilization, Percent of Control (T-47D; [2]): 1% of Control; effect on the response to ionomycin in T-47D cells (T-47D): partially inhibit the response to ionomycin; calcium mobilization, Percent of Control (SaOS-2; [1]): 2% of Control; calcium mobilization, Percent of Control (SaOS-2; [2]): 0% of Control; calcium mobilization, Percent of Control (SaOS-2; [3]): 71% of Control; effect on responses to bradykinin in SaOS-2 cells (SaOS-2): inhibits the responses; calcium mobilization, Percent of Control (PANC-1; [1]): 0% of Control; calcium mobilization, Percent of Control (PANC-1; [2]): 2% of Control; calcium mobilization, Percent of Control (PANC-1; [3]): 89% of Control; calcium mobilization, Percent of Control (Jurkat; [1]): 52% of Control; calcium mobilization, Percent of Control (Jurkat; [2]): 2% of Control; calcium mobilization, Percent of Control (Jurkat; [3]): 52% of Control; calcium mobilization, Percent of Control (COLO320; [1]): 5% of Control; calcium mobilization, Percent of Control (COLO320; [2]): 2% of Control; calcium mobilization, Percent of Control (COLO320; [3]): 73% of Control
3 | CNCCc1cnc[nH]1 [N-a-his, N-alphamethyl histamine] | – | – | – | – | – | – | – | – | – | – | 12% of Control | 16% of Control | 30% of Control | 1% of Control | 2% of Control | 0% of Control | 11% of Control | 22% of Control | 2% of Control | 1% of Control | activity in cells that do not express the H1 receptor target (panel of 10 cell lines; agonist example, 10 uM): Neither Compound 1 nor histamine were active
4 | C[C@@H](N)Cc1c[nH]cn1 [R-a-his, R-alphamethyl histamine] | – | – | – | – | – | – | – | – | – | – | −1% of Control | −1% of Control | 0% of Control | 0% of Control | 2% of Control | 0% of Control | 0% of Control | 0% of Control | 2% of Control | 1% of Control | pattern of calcium responses compared with histamine and bradykinin (panel of 10 cell lines; agonist example, 10 uM, 10 cell lines): resembles neither bradykinin nor histamine
5 | NCCc1c[nH]cn1 [histamine] | – | – | – | – | – | – | – | – | – | – | 19% of Control | 18% of Control and 27% of Control | 32% of Control and 24% of Control | 1% of Control | 0% of Control | – | 13% of Control and 18% of Control | 26% of Control and 30% of Control | – | – | activity in cells that do not express the H1 receptor target (panel of 10 cell lines; agonist example, 10 uM): Neither Compound 1 nor histamine were active
6 | C[C@H](CCC(=O)O)C[C@H](C)C[C@H](C)C(=O)/C=C(\O)[C@H](C)C[C@H](C)C/C=C/[C@@H](C)[C@@H](O)[C@@H](C)[C@@H](O)C[C@@H]1CC[C@@](C)([C@H]2CC[C@@](C)([C@@H](C)O)O2)O1 [ionomycin] | – | – | – | – | – | – | – | – | – | – | 100% of Control | 100% of Control | 100% of Control | 100% of Control | 100% of Control | 100% of Control | 100% of Control | 100% of Control | 100% of Control | 100% of Control | –
